Data from ChEMBL document CHEMBL1201862, “PubChem BioAssay data set” (2004).
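Tested at 5 concentrations; 48 h exposure; 96-well plates; endpoints linearly interpolated, else capped at highest concentration. GI50: concentration for 50% inhibition of growth.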 The source made the active and inactive calls. Rule as the data show it: active = GI50 up to about 1.1 µM and inactive = higher.

Columns and labels:
Test in all cases: DTP human tumour cell line panel, 48 h
[1] = test system: A498
[2] = test system: CCRF-CEM
[3] = test system: DU-145
[4] = test system: HCT-116
[5] = test system: HCT-15
[6] = test system: LOX IMVI
[7] = test system: M14
[8] = test system: MDA-MB-435
[9] = test system: MDA-N
[10] = test system: Malme-3M
[11] = test system: NCI-H460
[12] = test system: OVCAR-4
[13] = test system: OVCAR-5
[14] = test system: SF-295
[15] = test system: SK-MEL-5
[16] = test system: SN12C
[17] = test system: SNB-75
[18] = test system: SR
[19] = test system: U-251
[20] = test system: UACC-257

Structure (SMILES) | GI50 [1] | GI50 [2] | GI50 [3] | GI50 [4] | GI50 [5] [µM] | GI50 [6] | GI50 [7] | GI50 [8] | GI50 [9] | GI50 [10] | GI50 [11] | GI50 [12] | GI50 [13] | GI50 [14] | GI50 [15] | GI50 [16] | GI50 [17] | GI50 [18] | GI50 [19] | GI50 [20]
C/C=C/C(O)P(=O)(OC)OC (stereo not drawn) | 0.316 µM (active) | 0.227 µM (active) | 0.34 µM (active) | 0.254 µM (active) | 0.309 | 0.187 µM (active) | 0.207 µM (active) | 0.267 µM (active) | 0.217 µM (active) | 0.296 µM (active) | 0.272 µM (active) | 0.335 µM (active) | 0.284 µM (active) | 0.366 µM (active) | 0.196 µM (active) | 0.4 µM (active) | 0.312 µM (active) | 0.257 µM (active) | 0.307 µM (active) | 0.256 µM (active)
CCOC(=O)N1c2ccccc2C(C)=CC(C)C1C (stereo not drawn) | 27 µM (inactive) | 21.9 µM (inactive) | 38.3 µM (inactive) | 6.73 µM (inactive) | 5.36 | 7.53 µM (inactive) | 13.6 µM (inactive) | 3.37 µM (inactive) | 1.32 µM (inactive) | 33.9 µM (inactive) | 21.4 µM (inactive) | 60.5 µM (inactive) | 40.1 µM (inactive) | 23.9 µM (inactive) | 12.5 µM (inactive) | 40.7 µM (inactive) | 19.1 µM (inactive) | 5.09 µM (inactive) | – | 12.7 µM (inactive)
CC(O)CCCOC(c1ccccc1)(c1ccccc1)c1ccccc1 (stereo not drawn) | 20.1 µM (inactive) | 23.3 µM (inactive) | 16.6 µM (inactive) | 13.8 µM (inactive) | 15.4 | 15.2 µM (inactive) | 15.5 µM (inactive) | 16.5 µM (inactive) | 16.8 µM (inactive) | 14.5 µM (inactive) | 16.1 µM (inactive) | 14.8 µM (inactive) | 16.7 µM (inactive) | 13.8 µM (inactive) | 11.8 µM (inactive) | 16.7 µM (inactive) | 12.6 µM (inactive) | 20.1 µM (inactive) | 16.4 µM (inactive) | 16.3 µM (inactive)
COc1ccc(C[C@@H]2NC[C@@H](O)[C@@H]2OC(C)=O)cc1 | 0.0157 µM (active) | 0.00899 µM (active) | 0.0191 µM (active) | 0.0103 µM (active) | 0.0171 | 0.00403 µM (active) | 0.0185 µM (active) | 0.0168 µM (active) | 0.0212 µM (active) | 0.0385 µM (active) | 0.0142 µM (active) | 0.00957 µM (active) | 0.0198 µM (active) | 0.0253 µM (active) | 0.0104 µM (active) | 0.0229 µM (active) | 0.0132 µM (active) | 0.0164 µM (active) | 0.0173 µM (active) | 0.0228 µM (active)
CC(C)CC(NC(=O)C(C)(CI)Cc1ccccc1)C(=O)Nc1ccccc1 (stereo not drawn) | > 100 µM (inactive) | > 100 µM (inactive) | > 100 µM (inactive) | 31 µM (inactive) | > 100 | > 100 µM (inactive) | > 100 µM (inactive) | > 100 µM (inactive) | > 100 µM (inactive) | > 100 µM (inactive) | > 100 µM (inactive) | > 100 µM (inactive) | > 100 µM (inactive) | > 100 µM (inactive) | > 100 µM (inactive) | > 100 µM (inactive) | 86.5 µM (inactive) | 22.1 µM (inactive) | > 100 µM (inactive) | > 100 µM (inactive)
CC1(F)C=CC(=O)C=C1 | > 100 µM (inactive) | 47.5 µM (inactive) | > 100 µM (inactive) | 38.4 µM (inactive) | 20 | 16.3 µM (inactive) | > 100 µM (inactive) | 35.7 µM (inactive) | 33.2 µM (inactive) | 18.4 µM (inactive) | > 100 µM (inactive) | 79.3 µM (inactive) | 58.7 µM (inactive) | > 100 µM (inactive) | > 100 µM (inactive) | > 100 µM (inactive) | > 100 µM (inactive) | 32.6 µM (inactive) | 24.7 µM (inactive) | 71.8 µM (inactive)
O=C(O)C(O)C(O)C(O)C(=O)CO (stereo not drawn) | > 100 µM (inactive) | > 100 µM (inactive) | > 100 µM (inactive) | > 100 µM (inactive) | > 100 | > 100 µM (inactive) | > 100 µM (inactive) | > 100 µM (inactive) | > 100 µM (inactive) | > 100 µM (inactive) | > 100 µM (inactive) | > 100 µM (inactive) | > 100 µM (inactive) | > 100 µM (inactive) | > 100 µM (inactive) | > 100 µM (inactive) | > 100 µM (inactive) | > 100 µM (inactive) | > 100 µM (inactive) | > 100 µM (inactive)
ClCCCN1CCN(CCCl)CC1 | 261 µM (inactive) | 7.62 µM (inactive) | 57.3 µM (inactive) | 195 µM (inactive) | 189 | 59.8 µM (inactive) | 137 µM (inactive) | 282 µM (inactive) | 191 µM (inactive) | 142 µM (inactive) | 6.24 µM (inactive) | 186 µM (inactive) | 250 µM (inactive) | 34.3 µM (inactive) | 239 µM (inactive) | 34.4 µM (inactive) | 119 µM (inactive) | 7.98 µM (inactive) | 118 µM (inactive) | 284 µM (inactive)
O=C1C(N2CCN(CCOCCO)CC2)=C(Cl)C(=O)c2ncccc21 | > 10 µM (inactive) | 1.92 µM (inactive) | 52.7 µM (inactive) | 5.71 µM (inactive) | 18.1 | 12.7 µM (inactive) | 20.8 µM (inactive) | 1.88 µM (inactive) | 1.97 µM (inactive) | 8.77 µM (inactive) | 75.2 µM (inactive) | 20.3 µM (inactive) | 24.5 µM (inactive) | > 10 µM (inactive) | 16.6 µM (inactive) | 19.5 µM (inactive) | 38.3 µM (inactive) | > 10 µM (inactive) | 18.7 µM (inactive) | 22 µM (inactive)
CC(C)CC(=O)NC(C(=O)NC(C(=O)NC(CC(C)C)C(O)CC(=O)NC(C)C(=O)NC(CC(C)C)C(O)CC(=O)O)C(C)C)C(C)C (stereo not drawn) | > 100 µM (inactive) | > 100 µM (inactive) | > 100 µM (inactive) | > 100 µM (inactive) | > 100 | > 100 µM (inactive) | > 100 µM (inactive) | > 100 µM (inactive) | > 100 µM (inactive) | > 100 µM (inactive) | > 100 µM (inactive) | > 100 µM (inactive) | > 100 µM (inactive) | > 100 µM (inactive) | > 100 µM (inactive) | > 100 µM (inactive) | > 100 µM (inactive) | > 100 µM (inactive) | > 100 µM (inactive) | > 100 µM (inactive)
COC(=O)C(Cc1ccccc1)NC(=O)CSc1nnc(COc2ccc(Cl)cc2)n1-c1ccccc1 (stereo not drawn) | 17 µM (inactive) | 16.8 µM (inactive) | 34.8 µM (inactive) | 23.1 µM (inactive) | 35.2 | 14.6 µM (inactive) | 20.2 µM (inactive) | 19.1 µM (inactive) | 20.5 µM (inactive) | 19.7 µM (inactive) | 16.5 µM (inactive) | 21.4 µM (inactive) | 24.8 µM (inactive) | – | 17.1 µM (inactive) | 21.2 µM (inactive) | 23.8 µM (inactive) | 5.41 µM (inactive) | 18.5 µM (inactive) | 13.1 µM (inactive)
